US20230167058A1, “GPX4 COMPOUNDS AND COMPOSITIONS AND METHODS OF TREATMENT USING SAME” (THE TRUSTEES OF COLUMBIA UNIVERSITY IN THE CITY OF NEW YORK, priority 2020, published 2023)
Where a chain is given by its changes, count along the chain named. “Also recorded” adds a separate entry of the source.

Columns and labels:
[1] = target: T1, GPX4 (Homo sapiens, UniProt P36969, U73C); experiment: Surface plasmon resonance (SPR); assay type: binding; settings: Table 1
T1 sequence (P36969 33-197 U73C): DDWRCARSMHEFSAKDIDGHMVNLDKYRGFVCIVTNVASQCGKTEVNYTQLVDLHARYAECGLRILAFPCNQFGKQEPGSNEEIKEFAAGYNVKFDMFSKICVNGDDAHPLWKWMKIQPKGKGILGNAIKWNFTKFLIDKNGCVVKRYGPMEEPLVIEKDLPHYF
Description: (§1) These x-ray structures enabled further optimization of current inhibitors and the design of novel inhibitors targeting various binding sites on GPX4. Therefore, we applied a strategy of computer-facilitated design, based on MD simulation (Desmond) and Glide docking (Schrödinger Suite), and experimental high-throughput screening of a lead-optimized compound library of 10,000 compounds (FIGS. 6A-6E). All candidates were first evaluated by thermal denaturation assay and microscale thermophoresis (MST) to validate binding to GPX4 (Table 1). Surface plasmon resonance (SPR) and isothermal titration calorimetry (ITC) were then applied to precisely measure their binding kinetics and affinities, while ^1H-^15N heteronuclear single-quantum coherence (HSQC) NMR spectroscopy informed us of binding sites. We optimized two GPX4-specific activity assays to examine enzymatic inhibitory effects of hit compounds—LC-MS-based substrate/product monitoring and an NADPH-coupled assay. […] Some L880 analogues were also synthesized and tested (Table 2).

[2] = target: T2, GPX4 (Homo sapiens, UniProt P36969); experiment: GPX4-specific enzymatic activity assay (LC-MS substrate/product, NADPH-coupled); assay type: biochemical
T2 sequence (P36969 1-170 isoform P36969-2): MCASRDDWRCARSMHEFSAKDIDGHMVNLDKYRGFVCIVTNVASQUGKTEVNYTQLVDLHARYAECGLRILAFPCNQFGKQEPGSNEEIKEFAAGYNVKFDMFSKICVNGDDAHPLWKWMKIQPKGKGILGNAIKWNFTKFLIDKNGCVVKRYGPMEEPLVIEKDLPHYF
Description: as §1

[3] = target: T3, GPX4^allCys(−) A46C (Homo sapiens, UniProt P36969, C102S/C134A/C175A/C37A/C64S/C93A/U73C); experiment: Intact protein MALDI MS analysis, GPX4^allCys(−) A46C; assay type: binding; settings: only cys46 present
T3 construct: His (cleaved yes); made in house; host or cells: E. coli BL21-Gold (DE3)
T3 sequence (P36969 33-197 C37A/C64S/U73C/C93A/C102S/C134A/C175A): T1 sequence (P36969 33-197 U73C) with C5A, C32S, C61A, C70S, C102A, C143A
Description: GPX4^U46C or GPX4^AllCys(−)-A46C protein was pre-incubated with DMSO control or the inhibitor to be tested prior to MALDI MS analysis: 50 μM GPX4 protein was incubated with 500 μM inhibitors in FPLC buffer (100 mM Tris pH 8.0, 300 mM NaCl, and 3 mM TCEP) with 5% DMSO at RT for 1 hour before transferring to 4° C. overnight.
1 μl of the ligand-free protein (pre-incubated with DMSO) or protein-inhibitor complex (pre-incubated with the inhibitor to be tested) was mixed with 9 μl of 10 mg/ml sinapinic acid in the matrix solution (70:30 water/acetonitrile, with 0.1% TFA). 1.0 μl of the final mix was deposited onto the target carrier and allowed to air dry. MALDI spectrum was recorded using Bruker ultrafleXtreme MALDI-TOF instrument. The range of m/z detection and suppression was adjusted to accommodate the molecular weight of target protein. 2000 Hz and 50% intensity was applied for the laser setting. For each sample, five cumulative spectra were collected and the sum was recorded for analysis. All MALDI spectra of protein-inhibitor complex were compared with ligand-free protein to determine the mass shift. Mass shifts were aligned with the mass of potential staying group of each inhibitor to conclude covalent binding.

[4] = test system: allCys(−) A66C GPX4 in G401 cells; experiment: Western blot GPX4 degradation study in G401; assay type: cell-based; settings: 2 or 4 μM RSL3, 10 h, 10 μM Fer-1
Description: For the GPX4 degradation study, G-401 cells were seeded at 800,000 per well in a 60-mm plate and allowed to adhere overnight. Cells were then treated with 10 μM Fer-1 and 0 (vehicle), 2 or 4 μM RSL3 for 10 h. Cells were harvested with trypsin (Invitrogen, 25200-114), pelleted, and lysed with RIPA buffer.
For the quantification of GPX4 protein level for cellular viability and GPX4-specific activity assay, each cell line subject to the cellular viability and GPX4-specific activity was tested by Western Blot in technical duplicates. In particular, cells were harvested with trypsin (Invitrogen, 25200-114), pelleted, and lysed by LCW lysis buffer (0.5% TritonX-100, 0.5% sodium deoxycholate salt, 150 mM NaCl, 20 mM Tris-HCl pH 7.5, 10 mM EDTA, 30 mM Na-pyrophosphate, and cOmplete protease inhibitor cocktail). While part of the cell lysates was blotted for protein quantification, the other part of lysates was used for the GPX4-specific activity assay. For both experiments, cell lysates were blotted and imaged as previously described (Yang et al. 2014). Antibodies used were GPX4 (Abcam, ab125066, 1:250 dilution) and actin (Cell Signaling, D18C11, 1:3,000 dilution). Results were quantified using a LI-COR Odyssey CLx IR scanner, ImageJ, and GraphPad Prism 9.

[5] = test system: cancer cells; settings: cited from earlier work

Structure (SMILES) | SPR [1] | GPX4 enzymatic assay [2] | covalent modification of cys46 (mass shift) by MALDI MS [3] | RSL3-induced degradation of allCys(−) A66C GPX4 [4] | potency to induce ferroptosis [5]
COc1cccc2[nH]c(C(=O)n3ccnc3)cc12 [LOC1886] | positive | suppression of its enzymatic activity; also recorded: positive | – | – | –
COC(=O)c1ccc([C@@H]2c3[nH]c4ccccc4c3C[C@@H](C(=O)OC)N2C(=O)CCl)cc1 [RSL3, (1S, 3R)-RSL3] | – | – | no mass shift | does-dependent degradation of allCys(−) A66C GPX4 | nanomolar potencies
